Results: patent US20140044766A1, “METHOD FOR THE ANTIMICROBIAL PROTECTION OF AN OBJECT USING AN ANTIMICROBIAL PRESSURE-SENSITIVE ADHESIVE PLASTICS FILM” (priority 2007, published 2014)
“Also recorded” adds a separate entry of the source.

Experiments:
[1] = system: penicillin-resistant Stapylococcus aureus; settings: cited from earlier work
[2] = system: Staphylococcus aureus bacteria; experiment: inhibition zone method, similar to Japanese standard JIS L 1902: 2002; format: cell-based
Experimental: The antimicrobial activity of the films was determined using the inhibition zone method, similar to that described in Japanese standard JIS L 1902: 2002. The film was cut into small disks with a diameter of 1 cm. They were immersed in a dish containing a nutrient medium and a known quantity of yellow colored Staphylococcus aureus bacteria. […] A protective halo was formed around the treated samples that was termed the inhibition zone, as shown in FIGS. 4-1 to 4-15 representing the results for the antimicrobial films of Examples 1 to 15. Measuring this halo allowed the intensity of the antimicrobial activity of the film to be determined.

Pseudomonas aeruginosa = settings: cited from earlier work

Oc1cc(Cl)ccc1Oc1ccc(Cl)cc1Cl [triclosan, 5-chloro-2-(2,4-dichlorophenoxy)phenol]
effect on penicillin-resistant Stapylococcus aureus [1]: simply inhibited | antimicrobial activity in varnish-coated films (comparison in words) ([2]; agent incorporated in acrylic varnish on PVC film): more effective than Parmetol CF10 and Irgaguard H6000; also recorded: retained a high activity compared with the others | antimicrobial activity in a film incorporating the agent in its material (comparison in words) ([2]; cast PVC film, Examples 8 to 15): highest antimicrobial activity | effect on Pseudomonas aeruginosa (Pseudomonas aeruginosa): not affected
